Laboratory results reported in US10189865B1, “Gold(I) complexes, pharmaceutical compositions thereof, and methods of treating proliferative disorders” (King Fahd University of Petroleum and Minerals, priority 2018, dated 2019).

Key:
Assay type in all cases: cell-based
[1] = test system: HCT15 (human colon cancer) cell line; experiment: MTT in vitro cytotoxicity assay, HCT15; conditions: 24 h incubation with complex, three independent experiments, read-out: IC50 against HCT15
Procedure: (§1) The cells were seeded at 3×10^3 cells/well in 100 μL of Dulbecco's Modified Eagle's Medium (DMEM) containing 10% fetal bovine serum (FBS) in a 96-well tissue culture plate and incubated for 72 h at 37° C., 5% CO2 and 90% relative humidity in a CO2 incubator. After incubation, 100 μL of 100, 50, 25 and 12.5 μM solutions of cisplatin and gold(I) complexes prepared in Dulbecco's Modified Eagle's Medium (DMEM) was each added to the cells and the cultures were incubated for 24 h. The medium in the wells was casted off, and 100 μL of DMEM containing MTT (0.5 mg/mL) was added to the wells, which were subsequently incubated in the CO2 incubator at 37° C. in the dark for 4 h. After incubation, purple-colored formazan produced by the cells appeared as dark crystals in the bottom of the wells. The culture medium was carefully removed from each well to prevent disruption of the monolayer, and 100 μL of dimethyl sulfoxide (DMSO) was added in each well. The solution in the wells was thoroughly mixed to dissolve the formazan crystals which produced a purple solution. The absorbance of the 96 well-plates was measured at 570 nm with Labsystems Multiskan EX ELISA reader against a reagent blank. The experimental results were calculated as micro-molar concentration for 50% cell growth inhibition (IC50) of each drug. The MTT assay was carried out in three independent experiments, each in triplicate. […]

[2] = test system: A549 (human lung carcinoma) cell line; experiment: MTT in vitro cytotoxicity assay, A549; conditions: 24 h incubation with complex, three independent experiments, read-out: IC50 against A549
Procedure: as §1

[3] = test system: MCF7 (human breast adenocarcinoma) cell line; experiment: MTT in vitro cytotoxicity assay, MCF7; conditions: 24 h incubation with complex, three independent experiments, read-out: IC50 against MCF7
Procedure: as §1

Compound: N.N.[Cl][Pt][Cl] [Cisplatin, cisplatin, reference compound]
- IC50 [1]: 33 ± 2 µM

Compound: [Au(IPr)(ImSe]PF6 [Complex (II)]
- IC50 [1]: 33 ± 1 µM
- IC50 [2]: 47 ± 1 µM
- IC50 [3]: 43 ± 2 µM
